This note sets out measurements from patent US5789186A, “Marker for cerebral apoplexy” (Oriental Yeast Co., Ltd., priority 1995, dated 1998).

Molecules are shown by their SMILES. Read-outs that look alike come from different tables or passages of the source.

Type in all cases: biochemical
For test [1], the system named is B-type isozyme (PGAM-BB). In words: Inhibition test using purified PGAM isozymes, B-type. The conditions noted are these: treatment with tetrathionic acid as PGAM inhibitor. From the text: (§1) The assay method according to the present invention comprises treating a blood sample such as serum with a PGAM inhibitor to inactivate a specific isozyme, and then determining residual PGAM activity. For example, when tetrathionic acid is used as the PGAM inhibitor, almost 100% of M-type isozyme activity and about 50% of MB-type isozyme activity are lost, while B-type isozyme activity is hardly lost. Therefore, the B-type isozyme can be separately quantified by adding tetrathionic acid to serum to inactivate the M-type isozyme and measuring residual PGAM activity.
(§2) Incidently, according to the inhibition test using purified PGAM isozymes, only 50% of MB-type isozyme activity is lost by the treatment with tetrathionic acid, and 50% of the activity remains. However, since most of PGAM activities in normal serum and cerebral tissues are attributed to the B-type isozyme, residual activity of the MB-type isozyme can be practically disregarded in the case of diagnosis of cerebral apoplexy in a biological sample.

Test [2] concerns M-type isozyme (PGAM-MM). Put plainly: Inhibition test using purified PGAM isozymes, M-type. The following applies: treatment with tetrathionic acid as PGAM inhibitor.
From the text: as §1, §2

Test [3] deals with PGAM-M (Homo sapiens, UniProt P15259). Put plainly: Effect of potassium tetrathionate on PGAM-M standard, automatic assay method (NADH decrease rate assay). An excerpt:
(§3) Namely, 3-phosphoglycerate (Glycerate-3-P) is converted into 2-phosphoglycerate (Glycerate-2-P) by PGAM-B in the presence of 2,3-bisphosphoglycerate (Glycerate-2,3-P2) and the resulting product is converted into PEP and H2 O by enolase. Then, PEP is converted into pyruvate and ATP by pyruvate kinase (PK) in the presence of ADP, and lactate dehydrogenase (LDH) is acted on pyruvate thus obtained in the presence of NADH to conduct the rate assay of the decrease of NADH.
(§4) Effect of potassium tetrathionate on PGAM-B and PGAM-M was examined by an automatic assay method.
(§5) Standard preparations of the B-type and M-type isozymes (pooled serum base) were used as samples. These were diluted 1/1 to 1/8 with physiological saline to serve as samples. To the thus prepared samples were added potassium tetrathionate of various concentrations. After the reaction was carried out for 5 minutes, the quantity of the B-type and M-type PGAMs were determined by the automatic assay method.
(§6) The quantity of PGAM-B and PGAM-M were respectively determined using the reagent of Example 2 by the automatic assay method, and the results shown in Table 2 below were obtained.
(§7) Potassium tetrathionate (molecular weight of 302.4) was added to and dissolved in the PGAM activity assay reagent (R-1) so as to give a concentration of 2.25 mM (final concentration of 1.9 mM) (15 mg of potassium tetrathionate was dissolved in 22 ml of the R-1 reagent) and the M-type isozyme was inactivated to prepare a B-type PGAM activity assay reagent.
(§8) Five μl of a serum sample was combined with 250 μl of the solution of Reagent 1 (R-1) in which potassium tetrathionate was dissolved, and the mixture was allowed to stand for 5 minutes. During this period, the M-type (and MB-type) PGAM was inactivated and inhibited, and then the B-type PGAM activity was determined using Reagent 2 (R-2).
(§9) The reaction was initiated (substrate start) by adding 41 μl of Reagent 2 (R-2) because it contained glycerate-3-phosphate (substrate). The assay was started about 1.5 minutes after the addition of Reagent 2.
(§10) The assay was carried out using Hitachi 7150 model automatic analyzer with setting the assay code to RATE-A: 32-39 and the measuring temperature to 37° C. The decrease in absorbance A 340 nm associated with the decrease of NADH was measured for about 1.5 minutes. It should be noted that the assay was carried out at the secondary wavelength of 405 nm.
(§11) One unit of the enzyme (1 U: 1 unit) was defined as the amount of the enzyme that reduces 1 μmol of NADH for 1 minute at 37° C. Actual measured values were calculated by multiplying the rate assay value by a calibrating factor (K FACTOR).

For test [4], the target named is PGAM-B (Homo sapiens, UniProt P18669). In words: Effect of potassium tetrathionate on PGAM-B standard, automatic assay method (NADH decrease rate assay). The following applies: for activity at 1900 µM / activity at 3800 µM / activity at 7600 µM: 5 min, PGAM-B standard (pooled serum base), 5 min reaction, read-out: PGAM-B activity relative to 0 mM potassium tetrathionate (=100); for activity at 1900 µM: final concentration 1.9 mM; for activity at 3800 µM: final concentration 3.8 mM; for activity at 7600 µM: final concentration 7.6 mM.
Sequence of PGAM-B (P18669 whole entry): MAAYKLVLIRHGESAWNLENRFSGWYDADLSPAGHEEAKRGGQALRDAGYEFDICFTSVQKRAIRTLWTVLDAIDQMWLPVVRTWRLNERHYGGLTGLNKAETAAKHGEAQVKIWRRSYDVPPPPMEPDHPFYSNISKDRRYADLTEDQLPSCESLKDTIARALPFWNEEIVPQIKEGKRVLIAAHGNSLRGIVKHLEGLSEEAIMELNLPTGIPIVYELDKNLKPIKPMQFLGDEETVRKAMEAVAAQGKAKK
From the text: as §3, §4, §5, §6, §7, §8, §9, §10, §11

Where [5] appears, read: dilution rate 1/1 (control 183 U/L).
Where [6] appears, read: dilution rate 1/2 (control 91 U/L).
Where [7] appears, read: dilution rate 1/4 (control 46 U/L).
Setting [8] is: dilution rate 1/8 (control 22 U/L).

Sequence of PGAM-M (P15259 whole entry): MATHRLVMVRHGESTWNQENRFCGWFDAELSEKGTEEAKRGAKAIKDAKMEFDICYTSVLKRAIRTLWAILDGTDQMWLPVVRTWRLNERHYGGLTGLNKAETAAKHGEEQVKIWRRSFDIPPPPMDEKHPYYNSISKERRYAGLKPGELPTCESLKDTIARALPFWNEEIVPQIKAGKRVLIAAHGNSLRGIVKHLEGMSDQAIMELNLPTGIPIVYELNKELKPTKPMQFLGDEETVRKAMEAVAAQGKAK

Consider `O=S(=O)(O)SSS(=O)(=O)O` [tetrathionic acid], for which the “B-type isozyme activity lost (in words)” value in test [1] is given as “hardly lost”. In addition, in test [2], the “M-type isozyme activity lost” value is listed as approximately 100%.
As to `O=S(=O)([O-])SSS(=O)(=O)[O-].[K+].[K+]` [potassium tetrathionate], the activity at 1900 µM in test [3] (5 min, PGAM-M standard (pooled serum base), dilution rate 1/8 (control 332 U/L), final concentration 1.9 mM, 5 min reaction, read-out: PGAM-M activity relative to 0 mM potassium tetrathionate (=100)) stood at 0%; in test [4] (setting [5]) it was 98%; in test [4] (setting [6]) it was 98%; in test [4] (setting [7]), 97%; in test [4] (setting [8]), 93%. The activity at 3800 µM in test [3] (5 min, PGAM-M standard (pooled serum base), dilution rate 1/8 (control 332 U/L), final concentration 3.8 mM, 5 min reaction, read-out: PGAM-M activity relative to 0 mM potassium tetrathionate (=100)) worked out at 0%; in test [4] (setting [5]) it was 92%; in test [4] (setting [6]), 91%; in test [4] (setting [7]), 86%; in test [4] (setting [8]), 93%. The activity at 7600 µM in test [3] (5 min, PGAM-M standard (pooled serum base), dilution rate 1/8 (control 332 U/L), final concentration 7.6 mM, 5 min reaction, read-out: PGAM-M activity relative to 0 mM potassium tetrathionate (=100)) turned out to be 0%; in test [4] (setting [5]), 81%; in test [4] (setting [6]), 80%; in test [4] (setting [7]) it was 59%; in test [4] (setting [8]) it was 75%. For the same molecule, the “Effect on the M-type isozyme (in words)” value in test [3] (summary of Table 2) was “specifically inactivated”. In test [4] (summary of Table 2), the “Effect on the B-type isozyme (in words)” value was “no effect was observed”.
